In patent US20060069132A1, “Azolecarboxamide herbicides” (priority 2004, published 2006):

Legend:
[1] = test system: pigweed (AMARE); test: Test J Compounds 2 and 6 alone and in combination with other herbicides, foliage spray; type: in vivo, Amaranthus retroflexus; design: key to AMARE Obsd.: 0 = no effect, 100 = complete control; conditions: for AMARE Obsd.: applied alone
Excerpt: Colby's Equation was used to calculate the expected additive herbicidal effect of the mixtures of Compound 6 with Harmony® Extra (i.e. a 2:1 mixture by weight of thifensulfuron-methyl and tribenuron-methyl). Colby's Equation (Colby, S. R. “Calculating Synergistic and Antagonistic Responses of Herbicide Combinations,” Weeds, 15(1), pp 20-22 (1967)) calculates the expected additive effect of herbicidal mixtures, and for two active ingredients is of the form: Pa+b=Pa+Pb−(PaPb/100) wherein • Pa+b is the percentage effect of the mixture expected from additive contribution of the individual components, • Pa is the observed percentage effect of the first active ingredient at the same use rate as in the mixture, and • Pb is the observed percentage effect of the second active ingredient at the same use rate as in the mixture.
(§1) Seeds of test plants consisting of barnyardgrass (ECHCG; Echinochloa crus-galli (L.) Beauv.), blackgrass (ALOMY; Alopecurus myosuroides Huds.), Surinam grass (BRADC; Urochloa decumbens (Staph) R. D. Webster, previously named Brachiaria decumbens Stapf), cocklebur (XANST, Xanthium strumarium L.), corn (ZEAMD, Zea mays L. cv. ‘Pioneer 33G26’), large crabgrass (DIGSA, Digitaria sanguinalis (L.) Scop.), giant foxtail (SETFA, Setaria faberi Herrm.), lambsquarters (CHEAL, Chenopodium album L.), morningglory (IPOCO, Ipomoea coccinea L.), pigweed (AMARE, Amaranthus retroflexus L.), velvetleaf (ABUTH, Abutilon theophrasti Medik.) wheat (TRZAS, Triticum aestivum L. cv. ‘Recital’) and wild oat (AVEFA, Avena fatua L.) were planted in Redi-Earth® planting medium (Scotts Company, 14111 Scottslawn Road, Marysville, Ohio 43041) comprising spaghnum peat moss and vermiculite. Seeds of small-seeded species were planted about 1 cm deep; larger seeds were planted about 2.5 cm deep. Plants were grown in a greenhouse using supplemental lighting to maintain a photoperiod of about 14 hours; daytime and nighttime temperatures were about 24-30° C. and 22-25° C., respectively. […] Also listed in Table J are the expected effects for the mixtures calculated using Colby's Equation.

[2] = test system: large crabgrass (DIGSA); test: as above; type: in vivo, Digitaria sanguinalis; design: key: 0 = no effect, 100 = complete control; conditions: applied alone
Excerpt: Colby's Equation was used to calculate the expected additive herbicidal effect of the mixtures of Compound 6 with Harmony® Extra (i.e. a 2:1 mixture by weight of thifensulfuron-methyl and tribenuron-methyl). […]
as §1, with “vermiculite.” for “vermiculite. Seeds of small-seeded species were planted about 1 cm deep; larger seeds were planted about 2.5 cm deep. Plants were grown in a greenhouse using supplemental lighting to maintain a photoperiod of about 14 hours; daytime and nighttime temperatures were about 24-30° C. and 22-25° C., respectively.”

[3] = test system: kochia; test: Test F pre-/postemergence herbicide test; type: in vivo, Kochia scoparia
Excerpt: (§2) Seeds of plant species selected from annual blugrass (Poa annua L.), blackgrass (Alopecurus myosuroides Huds.), catchweed bedstraw (Gallium aparine L.), common chickweed (Stellaria media (L.) Vill./Cyr.), downy bromegrass (Bromus tectorum L.), green foxtail (Setaria viridis (L.) Beauv.), Italian ryegrass (Lolium multiflorum Lam.), kochia (Kochia scoparia (L.). Schrad.), lambsquarters (Chenopodium album L.), littleseed canarygrass (Phalaris minor Retz.), pigweed (Amaranthus retroflexus L.), Russian thistle (Salsola kali L. ssp. Ruthenica (Iljin) Soo), wild buckwheat (Polygonum convolvulus L.), wild mustard (Sinapis arvensis L.), wild oat (Avena fatua L.), windgrass (Apera spica-venti (L.) Beauv.), winter barley (Hordeum vulgare L.), and wheat (Triticum aestivum L.) were planted and treated preemergence with test chemicals formulated in a non-phytotoxic solvent mixture which included a surfactant.
(§3) At the same time, plants selected from these crop and weed species were treated with postemergence applications of some of the test chemicals formulated in the same manner. Plants ranged in height from 2 to 18 cm (1- to 4-leaf stage) for postemergence treatments. Treated plants and controls were maintained in a greenhouse for 12 to 14 days, after which time all species were compared to controls and visually evaluated. Plant response ratings, summarized in Table F, are based on a scale of 0 to 100 where 0 is no effect and 100 is complete control. A dash (-) response means no test result.

[4] = test system: littleseed canarygrass; test: Test F pre-/postemergence herbicide test; type: in vivo, Phalaris minor
Excerpt: as §2, §3

[5] = test system: catchweed bedstraw; test: Test F pre-/postemergence herbicide test; type: in vivo, Gallium aparine
Excerpt: as §2, §3

[6] = test system: common chickweed; test: Test F pre-/postemergence herbicide test; type: in vivo, Stellaria media
Excerpt: as §2, §3

[7] = test system: wild oat; test: Test F pre-/postemergence herbicide test; type: in vivo, Avena fatua
Excerpt: as §2, §3

SMILES: CCn1nc(C(C)(C)C)cc1C(=O)Nc1cc(C(=O)N(C)C)ccc1F [Compound 6, N-[5-[(dimethylamino)carbonyl]-2-fluorophenyl]-3-(1,1-dimethylethyl)-1-ethyl-1H-pyrazole-5-carboxamide]
- AMARE Obsd. ([1]; 62 g a.i./ha): 28
- AMARE Obsd. ([1]; 125 g a.i./ha): 60
- observed effect of mixture compared with additive effect expected from Colby's Equation ([1]; mixture with atrazine, pigweed, foliage spray, 15 days after treatment): greater than additive
- DIGSA Obsd. ([2]; 62 g a.i./ha): 8
- DIGSA Obsd. ([2]; 125 g a.i./ha): 13

SMILES: CCn1nc(C(C)(C)C)cc1C(=O)Nc1cc(C(=O)OC(C)C)c(F)cc1F [Compound 248]
- Plant response rating (0-100), Kochia ([3]; Postemergence, 31 g ai/ha): 60
- Plant response rating (0-100), Kochia ([3]; Postemergence, 62 g ai/ha): 60
- Plant response rating (0-100), Kochia ([3]; Postemergence, 125 g ai/ha): 65
- Plant response rating (0-100), Kochia ([3]; Postemergence, 250 g ai/ha): 65
- Plant response rating (0-100), Kochia ([3]; Preemergence, 31 g ai/ha): 50
- Plant response rating (0-100), Kochia ([3]; Preemergence, 62 g ai/ha): 60
- Plant response rating (0-100), Kochia ([3]; Preemergence, 125 g ai/ha): 65
- Plant response rating (0-100), Kochia ([3]; Preemergence, 250 g ai/ha): 100
- Plant response rating (0-100), Canarygrass ([4]; Postemergence, 31 g ai/ha): 35
- Plant response rating (0-100), Canarygrass ([4]; Postemergence, 62 g ai/ha): 40
- Plant response rating (0-100), Canarygrass ([4]; Postemergence, 125 g ai/ha): 40
- Plant response rating (0-100), Canarygrass ([4]; Postemergence, 250 g ai/ha): 45
- Plant response rating (0-100), Canarygrass ([4]; Preemergence, 31 g ai/ha): 40
- Plant response rating (0-100), Canarygrass ([4]; Preemergence, 62 g ai/ha): 45
- Plant response rating (0-100), Canarygrass ([4]; Preemergence, 250 g ai/ha): 75
- Plant response rating (0-100), Galium ([5]; Postemergence, 31 g ai/ha): 50
- Plant response rating (0-100), Galium ([5]; Postemergence, 62 g ai/ha): 50
- Plant response rating (0-100), Galium ([5]; Postemergence, 125 g ai/ha): 60
- Plant response rating (0-100), Galium ([5]; Postemergence, 250 g ai/ha): 60
- Plant response rating (0-100), Galium ([5]; Preemergence, 31 g ai/ha): 30
- Plant response rating (0-100), Galium ([5]; Preemergence, 62 g ai/ha): 50
- Plant response rating (0-100), Galium ([5]; Preemergence, 125 g ai/ha): 50
- Plant response rating (0-100), Galium ([5]; Preemergence, 250 g ai/ha): 60
- Plant response rating (0-100), Chickweed ([6]; Postemergence, 31 g ai/ha): 65
- Plant response rating (0-100), Chickweed ([6]; Postemergence, 62 g ai/ha): 65
- Plant response rating (0-100), Chickweed ([6]; Postemergence, 125 g ai/ha): 98
- Plant response rating (0-100), Chickweed ([6]; Postemergence, 250 g ai/ha): 100
- Plant response rating (0-100), Chickweed ([6]; Preemergence, 31 g ai/ha): 100
- Plant response rating (0-100), Chickweed ([6]; Preemergence, 62 g ai/ha): 100
- Plant response rating (0-100), Chickweed ([6]; Preemergence, 125 g ai/ha): 100
- Plant response rating (0-100), Chickweed ([6]; Preemergence, 250 g ai/ha): 100
- Plant response rating (0-100), Oat, Wild ([7]; Postemergence, 31 g ai/ha): 45
- Plant response rating (0-100), Oat, Wild ([7]; Postemergence, 62 g ai/ha): 45
- Plant response rating (0-100), Oat, Wild ([7]; Postemergence, 125 g ai/ha): 60
- Plant response rating (0-100), Oat, Wild ([7]; Postemergence, 250 g ai/ha): 65
- Plant response rating (0-100), Oat, Wild ([7]; Preemergence, 31 g ai/ha): 40
- Plant response rating (0-100), Oat, Wild ([7]; Preemergence, 62 g ai/ha): 45
- Plant response rating (0-100), Oat, Wild ([7]; Preemergence, 125 g ai/ha): 50
- Plant response rating (0-100), Oat, Wild ([7]; Preemergence, 250 g ai/ha): 65
